Laboratory results published in article PMC6751662, “Pharmacological and functional similarities of the human neuropeptide Y system in C. elegans challenges phylogenetic views on the FLP/NPR system” (Cell Communication and Signaling : CCS, 2019).

Experiments:
[1] = biological target: T1, Y1R (Homo sapiens, UniProt P25929); assay: cAMP reporter gene assay, Gi/o, Y1R; type: cell-based; conditions: for cAMP assay (Gi/o), Y1R: 4 h, lower = higher Gi/o activity, transfected HEK293, CRE-luciferase, mean of >=3 independent experiments; for Gi (Gs) [x-fold of forskolin], Y1R, mean: inhibition of cAMP production induced by 1 µM forskolin (set to 1.00), transiently transfected HEK293 cells, mean of at least three independent experiments
T1 construct: expressed in transfected cells; host or cells: HEK293, transient
T1 sequence (P25929 1-384): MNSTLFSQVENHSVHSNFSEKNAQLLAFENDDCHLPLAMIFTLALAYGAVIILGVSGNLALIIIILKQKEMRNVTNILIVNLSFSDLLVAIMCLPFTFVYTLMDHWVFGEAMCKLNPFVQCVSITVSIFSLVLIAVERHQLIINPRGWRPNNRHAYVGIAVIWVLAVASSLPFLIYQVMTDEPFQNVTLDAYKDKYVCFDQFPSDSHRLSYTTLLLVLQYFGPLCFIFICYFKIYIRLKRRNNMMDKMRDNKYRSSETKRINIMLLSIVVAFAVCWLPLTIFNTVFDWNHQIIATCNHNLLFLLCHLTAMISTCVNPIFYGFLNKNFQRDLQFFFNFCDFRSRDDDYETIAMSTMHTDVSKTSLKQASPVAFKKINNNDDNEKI
Experimental: Activation of Gs and Gi/o was assessed with a cAMP reporter gene assay. HEK293 cells grown to 70–80% confluency in 6-well plates were transiently co-transfected with vectors encoding the receptor and the cAMP reporter gene plasmid pGL4.29 [luc2P/CRE/Hygro] (Promega; 4 μg total, 1:1 ratio) using Metafectene Pro (3 μl/μg DNA; Biontex) following the manufacturer’s instructions. 16 h post transfection, the cells were seeded into white 384-well plates at a density of 20,000 cells/well. On the next day, the medium was removed and the cells were stimulated with 20 μl of peptide solution (or forskolin as positive control) in serum-free DMEM for 4 h. For measuring Gi/o activity, the peptide solutions additionally contained 1 μM forskolin to elevate cellular cAMP levels. After incubation, the luciferase substrate OneGlo in lysis buffer (Promega) was added and the luminescence was measured in a microplate reader Tecan Spark (Tecan). Data were analyzed with GraphPad Prism 5.03 and are shown as fold of basal or fold of forskolin in case of Gαi/o activity.
(§1) For in vitro activation, data is presented as mean ± SEM of at least three independent experiments conducted in technical triplicate. […] For the C. elegans NPRs, we considered the strongest response elicited by any of the peptides downstream of a particular receptor as the receptor’s maximal signal. This may or may not be the biological maximum that can be reached by the ‘true’ endogenous agonist. For the human receptors, the response to the established endogenous agonist reflected the maximal signal.

[2] = biological target: T2, NPR-4b (Caenorhabditis elegans, UniProt A0A078BTK0); assay: IP accumulation assay, co-transfected Gα16, NPR-4b; type: cell-based, C. elegans; conditions: 1 h, HBSS + 20 mM LiCl, HEK293 receptor + Gα16, HTRF IP-One, mean of >=3 independent experiments
T2 sequence (A0A078BTK0 1-376): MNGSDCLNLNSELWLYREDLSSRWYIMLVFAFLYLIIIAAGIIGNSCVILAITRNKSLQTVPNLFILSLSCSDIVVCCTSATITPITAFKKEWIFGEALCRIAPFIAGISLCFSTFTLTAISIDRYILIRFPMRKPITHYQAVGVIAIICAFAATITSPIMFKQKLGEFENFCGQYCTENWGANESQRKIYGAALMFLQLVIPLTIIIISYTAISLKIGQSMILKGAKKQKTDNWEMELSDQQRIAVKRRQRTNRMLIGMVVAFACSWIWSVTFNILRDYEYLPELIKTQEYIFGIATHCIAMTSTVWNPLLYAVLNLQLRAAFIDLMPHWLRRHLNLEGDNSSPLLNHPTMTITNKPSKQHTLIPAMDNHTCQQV
Experimental: (§2) For measuring IP accumulation, HEK293 cells grown to 70–80% confluency in 6-well plates were transiently co-transfected using Metafectene Pro (2.5 μl/μg DNA; Biontex) with plasmids containing receptor and/or mock (empty pcDNA3.1) (for endogenous Gq-coupling) using 4 μg total DNA in a ratio of 3:1 following the manufacturer’s instructions. For testing Gα16- and GαΔ6qi4myr-coupling, plasmids encoding the corresponding Gα protein were co-transfected instead of mock. Gα16 is naturally promiscuous and stimulates the phospholipase C (PLC) pathway leading to IP production, while the exchange of the C-terminal four amino acids of Gαq for the corresponding residues of Gαi1 in the chimeric GαΔ6qi4myr confers the ability to couple to Gi/o protein-preferring receptors but still stimulate PLC, thus specifically redirecting downstream cellular signaling. 16 h post transfection, the cells were seeded into white 384-well plates at a density of 20,000 cells/well. Media was removed 24 h later and the cells were incubated with the indicated concentration of peptides for 1 h in HBSS + 20 mM LiCl. IP accumulation was measured with the HTRF-based IP-One Gq kit (Cisbio) on a microplate reader (Tecan Spark).
(§3) For in vitro activation, data is presented as mean ± SEM of at least three independent experiments conducted in technical triplicate. […]

[3] = tested on: NPR-6; assay: IP accumulation assay, co-transfected Gα16, NPR-6; type: cell-based, C. elegans; conditions: 1 h, HBSS + 20 mM LiCl, HEK293 receptor + Gα16, HTRF IP-One, mean of >=3 independent experiments
Experimental: as §2, §3

[4] = biological target: T2, NPR-4b; assay: IP accumulation assay, chimeric GαΔ6qi4myr, NPR-4b; type: cell-based, C. elegans; conditions: 1 h, HBSS + 20 mM LiCl, HEK293 receptor + GαΔ6qi4myr, HTRF IP-One
Experimental: as §2, §1

[5] = biological target: T3, NPR-5b (Caenorhabditis elegans, UniProt Q6F3C9); assay: IP accumulation assay (Table S8), NPR-5b; type: cell-based, C. elegans; conditions: 1 h, HBSS + 20 mM LiCl, transfected HEK293, Table S8 (title: chimeric GαΔ6qi4myr), HTRF IP-One, mean of >=3 independent experiments
T3 sequence (Q6F3C9 1-433): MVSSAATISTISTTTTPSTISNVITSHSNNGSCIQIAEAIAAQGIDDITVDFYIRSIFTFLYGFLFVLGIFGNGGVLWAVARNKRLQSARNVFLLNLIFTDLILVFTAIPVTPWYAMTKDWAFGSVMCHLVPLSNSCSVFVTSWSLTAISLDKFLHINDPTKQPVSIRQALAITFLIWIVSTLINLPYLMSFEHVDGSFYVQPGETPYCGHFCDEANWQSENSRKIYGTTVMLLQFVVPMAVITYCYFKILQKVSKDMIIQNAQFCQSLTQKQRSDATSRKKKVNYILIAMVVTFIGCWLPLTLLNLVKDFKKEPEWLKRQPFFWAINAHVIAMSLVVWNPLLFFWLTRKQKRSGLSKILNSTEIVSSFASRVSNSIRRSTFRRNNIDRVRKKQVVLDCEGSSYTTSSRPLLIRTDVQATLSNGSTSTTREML
Experimental: as §2, §1

[6] = 0.1 µM peptide + 1 µM forskolin (set to 1.00)
[7] = 10 µM peptide + 1 µM forskolin (set to 1.00)
[8] = 0.1 nM peptide (so in the source)
[9] = 0.1 µM peptide (Table S8), mean of >=3 independent experiments
[10] = 10 µM peptide, mean of >=3 independent experiments (Tables S5 and S8)

IP accumulation with GαΔ6qi4myr, NPR-4b [4, 9] | IP accumulation with GαΔ6qi4myr, NPR-4b [4, 10] | IP accumulation, NPR-5b ([5]; 0.1 µM peptide) | IP accumulation, NPR-5b ([5]; 10 µM peptide) | Substance | further results
 |  |  |  | EASAFGDIIGELKGKGLGGRMRF-NH2 [FLP-27, NPY-like C. elegans FLP with C-terminal RxRF/Ya signature] | cAMP assay (Gi/o), Y1R [1, 6]: 0.88 x-fold of forskolin; cAMP assay (Gi/o), Y1R [1, 7]: 0.23 x-fold of forskolin
2.00 x-fold of basal | 5.53 x-fold of basal | 0.91 x-fold of basal | 1.45 x-fold of basal | APKPKFIRF-NH2 [FLP-5-1, C. elegans FMRFamide-like peptide, C-terminally amidated, synthesized by SPPS] | IP assay endog. Gαq + Gα16, NPR-4b [2, 8]: 1.04 x-fold of basal; IP assay endog. Gαq + Gα16, NPR-4b ([2]; 10 µM peptide): 0.84 x-fold of basal; IP assay endog. Gαq + Gα16, NPR-6 [3, 8]: 1.01 x-fold of basal; IP assay endog. Gαq + Gα16, NPR-6 ([3]; 10 µM peptide): 0.96 x-fold of basal; IP assay endog. Gαq + GαΔ6qi4myr, NPR-4b ([4]; 0.1 nM peptide (Table S5), mean of >=3 independent experiments): 2.00 x-fold of basal
 |  |  |  | GLGPRPLAF-NH2 [[R8A]FLP-21, R8A control peptide of FLP-21, penultimate arginine exchanged for an alanine] | Gi (Gs) [x-fold of forskolin], Y1R, mean ([1]; 0.1 µM peptide): 0.85 x-fold of forskolin; Gi (Gs) [x-fold of forskolin], Y1R, mean ([1]; 10 µM peptide): 0.76 x-fold of forskolin
2.48 x-fold of basal | 8.55 x-fold of basal | 0.99 x-fold of basal | 1.80 x-fold of basal | AGSDPNFLRF-NH2 [FLP-1-2, C. elegans FMRFamide-like peptide, C-terminally amidated, synthesized by SPPS] | 
4.71 x-fold of basal | 12.66 x-fold of basal | 0.90 x-fold of basal | 1.98 x-fold of basal | ASPSFIRF-NH2 [FLP-4-2, C. elegans FMRFamide-like peptide, C-terminally amidated, synthesized by SPPS] | 
4.77 x-fold of basal | 11.46 x-fold of basal | 1.19 x-fold of basal | 8.18 x-fold of basal | NPENDTPFGTMRF-NH2 [FLP-3-4, C. elegans FMRFamide-like peptide, C-terminally amidated, synthesized by SPPS] | 
 |  |  |  | RGPSGPLAF-NH2 [[R8A]FLP-15-2] | Gi (Gs) [x-fold of forskolin], Y1R, mean ([1]; 0.1 µM peptide): 0.72 x-fold of forskolin; Gi (Gs) [x-fold of forskolin], Y1R, mean ([1]; 10 µM peptide): 0.71 x-fold of forskolin
 |  |  |  | APLEGFEDMSGFLRTIDGIQKPRF-NH2 [FLP-33, NPY-like C. elegans FLP with C-terminal RxRF/Ya signature] | cAMP assay (Gi/o), Y1R [1, 6]: 0.94 x-fold of forskolin; cAMP assay (Gi/o), Y1R [1, 7]: 0.73 x-fold of forskolin
